Measured values from publication PMC7734798 (ACS Medicinal Chemistry Letters, 2020).

Columns and labels:
Olig2 = test: Oli-Neu proliferation marker Olig2 expression (Western blot); assay type: cell-based, mouse; conditions: Oli-Neu cells, 5 μM, 48 h
From the text: (§1) OPC proliferation and migration to the CNS injury site as well as their differentiation are critical steps toward remyelination in MS. HDAC activity plays a crucial role in OPC proliferation/differentiation; therefore, HDAC modulation is widely considered a promising therapeutic target for MS.[30] […] Therefore, we tested the effect of our compounds on OPC proliferation and differentiation, through cell counting, measure of filaments, and analysis of proliferation/differentiation markers (Figure 7).
Oli-Neu cells were grown in SATO medium (DMEM medium, 2 mM glutamine, 10 μg/ml insulin, 5.5 μg/ml transferrin, 38.72 nM sodium selenite, 100 µM putrescine, 520 nM L-thyroxine (T4), 500 nM triiodo-L-thyronine (T3), 200 nM progesterone, 25 μg/ml of gentamycin) supplemented with 1% heat-inactivated horse serum (HS) in a humidified, 5% CO2 incubator at 37°C. Cell culture medium and all chemicals were from Sigma-Aldrich, except for insulin-transferrin-sodium selenite 100X supplement (Life Technologies Corporation). Cells were plated on 96 well plates, previously coated with 10 μg/mL poly-L-lysine (Sigma-Aldrich; 10 μg/ml) at the density of 2.5 x 10 4/0.2 mL medium/well and treated with increasing concentrations of the compounds (0.5, 1, 5 and 10 μM).
After 24 hours, the viability was evaluated through the MTT assay.
Oli-Neu cells proliferation and differentiation assay
(§2) 48 hours, for cell counting and measure of filaments, 5 random images for each condition were acquired with an Eclipse TS100 (Nikon) microscope using a 10X objective. Cells number and filament length were measured with Fiji ImageJ2 software. After 48 hours for proliferation and 72 hours of treatment for differentiation analysis, cells were lysed in ice-cold lysis buffer (50 mM Tris-HCl pH 7.4, 1% SDS, 0.05% protease inhibitor cocktail; all from Sigma-Aldrich) and protein content was determined by using the Lowry method. […]

CNPase = test: Oli-Neu differentiation marker CNPase expression (Western blot); assay type: cell-based, mouse; conditions: Oli-Neu cells, 5 μM, 72 h
From the text: as §1, with “7). […]” for “7).”
After 24 hours, the viability was evaluated through the MTT assay. […]
as §2

[1] = system: primary rat cerebellar granule neurons (CGNs); test: Neuroprotection assay: glutamate/glycine excitotoxicity in differentiated CGNs (MTT); assay type: cell-based; conditions: CGNs 8 DIV
Protocol: Several lines of evidence point to MS as not only an inflammatory but also a neurodegenerative disease. Thus, neuroprotective agents may hold promise for MS therapy.[32] […] Thus, to test the neuroprotective capability of 1 and 2, we used a glutamate excitotoxicity model of primary cultural neurons. At day 8 in vitro (8 DIV), CGNs were pretreated with the compounds for 6 h, before adding 100 μM glutamate/10 μM glycine insult for further 24 h. […] Furthermore, while reference compounds (alone and in combination) increase glutamate/glycine excitotoxicity at higher doses, 1 was not toxic even at the highest concentration tested (25 μM). […]
committee (Protocol n° 17-72-1212) and performed according to Italian and European Community laws on the use of animals for experimental purposes. […]
heat-inactivated FBS (Aurogene), 2 mM glutamine, 100 μM gentamicin sulphate and 25 mM KCl (all from Sigma-Aldrich). […] The viability of CGNs exposed to increasing concentrations of the studied compounds (0, 5, 10 and 25 μM) for 24 h was evaluated through the MTT assay. […] Following a 20 min incubation at 37 °C in the dark, the MTT precipitate was dissolved in 0.1 M Tris-HCl pH 7.5 buffer containing 5% Triton X-100 (all from Sigma-Aldrich) and absorbance was read at 570 nm in a multiplate spectophotometric reader (Bio-Rad). […] After 24 hours, neuronal survival has been evaluated through MTT assay. […]

Compound | expression of Olig2, marker of OPCs proliferation (Olig2) | expression of CNPase, marker of differentiation (CNPase) | toxicity under glutamate/glycine excitotoxicity at higher doses ([1]; 100 μM glutamate/10 μM glycine, highest concentration tested 25 μM) | neuroprotection against glutamatergic excitotoxicity (MTT) ([1]; 6 h pretreatment + 24 h with 100 μM glutamate/10 μM glycine, especially at 5 and 10 μM)
CC/C=C\C/C=C\C/C=C\CCCCCCCC(=O)NCCOC(=O)C(CCC)CCC [compound 2] | marked decrease |  |  | 
CC/C=C\C/C=C\C/C=C\CCCCCCCC(=O)NCCNC(=O)C(CCC)CCC [compound 1] | marked decrease | significant increase | not toxic | more neuroprotective
